The species entered for one experiment is Bos taurus. As to the kind of experiment: Ratio of IC50 of chlorpromazine to IC50 of compound for bovine brain PDE1.
Experiment [1] in a line: Inhibition of bovine brain PDE1. Details: species or system Bos taurus.

As a reminder, the IC50 is the point on the concentration scale where inhibition reaches its midpoint. Consider `CC1(C)c2[nH]c3cc(Cl)ccc3c2CC23CN4CCCC4(CC21)C(=O)N3` (racemic) [D,L-MALBRANCHEAMIDE B], for which, in the experiment listed under Bos taurus, the Ratio IC50 is 0.3. The compound further showed an IC50 in experiment [1] of 42.9 µM.
Take `CC1(C)c2[nH]c3ccc(Cl)cc3c2C[C@@]23NC(=O)[C@]4(CCCN4C2=O)C[C@H]13`: the Ratio IC50 in the experiment filed under Bos taurus came to 0.2. In experiment [1], the IC50 is 62.3 µM.
In the same order, the values of `CC1(C)c2[nH]c3ccc(Cl)c(Cl)c3c2C[C@@]23NC(=O)[C@]4(CCCN4C2=O)C[C@H]13` are 0.2 and 45.4 µM.
The like results for `CC1(C)c2[nH]c3ccc(Cl)c(Cl)c3c2C[C@@]23NC[C@]4(CCCN4C2=O)C[C@H]13` were, in that order, 0.4 and 27.5 µM.
For `CC1(C)c2[nH]c3cc(Cl)c(Cl)cc3c2C[C@@]23NC(=O)[C@]4(CCCN4C2=O)C[C@H]13`, the Ratio IC50 in the experiment filed under Bos taurus was 0.5. The same compound returned an IC50 in experiment [1] of 33.9 µM.
The like results for `CC1(C)c2[nH]c3cc(Cl)ccc3c2C[C@@]23NC(=O)[C@]4(CCCN4C2=O)C[C@H]13` were, in that order, 0.3 and 42.8 µM.
In the same order, the values of `CC1(C)c2[nH]c3cc(Cl)c(Cl)cc3c2C[C@@]23NC(=O)[C@]4(CCCN4C2=O)C[C@@H]13` are 0.9 and 18.6 µM.
In the same order, the values of `CC1(C)c2[nH]c3cc(Cl)c(Cl)cc3c2C[C@@]23CN4CCC[C@]4(C[C@H]12)C(=O)N3` are 0.1 and 134 µM.
In the case of `CC1(C)c2[nH]c3ccc(Cl)cc3c2C[C@@]23NC(=O)[C@]4(CCCN4C2=O)C[C@@H]13`, the Ratio IC50 in the experiment listed under Bos taurus is 0.4. In addition, the IC50 in experiment [1] was found to be 31.5 µM.
In the same order, the values of `CC1(C)c2[nH]c3ccc(Cl)c(Cl)c3c2C[C@@]23CN4CCC[C@]4(C[C@H]12)C(=O)N3` are 0.1 and 81.2 µM.
The like results for `CC1(C)c2[nH]c3ccccc3c2C[C@@]23NC(=O)[C@]4(CCCN4C2=O)C[C@@H]13` were, in that order, 0.1 and 151 µM.
With `CC1(C)c2[nH]c3ccccc3c2C[C@@]23NC(=O)[C@]4(CCCN4C2=O)C[C@H]13`, the Ratio IC50 in the experiment listed under Bos taurus amounted to 0.7. The same compound showed an IC50 in experiment [1] of 23.6 µM.
Consider `CC1(C)c2[nH]c3cc(Cl)ccc3c2C[C@@]23CN4CCC[C@]4(C[C@@H]12)C(=O)N3` [MALBRANCHEAMIDE B], for which the Ratio IC50 in the experiment listed under Bos taurus is 0.1. Further, the IC50 in experiment [1] is 183 µM.
As for `CC1(C)c2[nH]c3cc(Cl)c(Cl)cc3c2C[C@@]23NC[C@]4(CCCN4C2=O)C[C@H]13`, the Ratio IC50 in the experiment filed under Bos taurus stood at 0.9. Further, it took 12 µM to reach half-maximal inhibition in experiment [1] (IC50).
The like results for `CC1(C)c2[nH]c3ccccc3c2C[C@@]23CN4CCC[C@]4(C[C@@H]12)C(=O)N3` were, in that order, 0.5 and 35.7 µM.
In the same order, the values of `CC1(C)c2[nH]c3ccc(Cl)cc3c2C[C@@]23CN4CCC[C@]4(C[C@@H]12)C(=O)N3` are 0.2 and 60.3 µM.
The like results for `CC1(C)c2[nH]c3cc(Cl)ccc3c2C[C@@]23NC(=O)[C@]4(CCCN4C2=O)C[C@@H]13` were, in that order, 0.2 and 61.8 µM.
`CC1(C)c2[nH]c3cc(Cl)c(Cl)cc3c2CC23CN4CCCC4(CC21)C(=O)N3` (racemic): the Ratio IC50 in the experiment filed under Bos taurus came out at 1.1. The compound further had an IC50 in experiment [1] of 16 µM.
In the same order, the values of `CC1(C)c2[nH]c3cc(Cl)c(Cl)cc3c2C[C@@]23CN4CCC[C@]4(C[C@@H]12)C(=O)N3` are 0.9 and 19.3 µM.

The values are drawn from ChEMBL document CHEMBL1152178, “Calmodulin inhibitory activity of the malbrancheamides and various analogs” (Bioorg Med Chem Lett, 2008).
